According to publication PMC8224742, “Evaluation of 1β-Hydroxylation of Deoxycholic Acid as a Non-Invasive Urinary Biomarker of CYP3A Activity in the Assessment of Inhibition-Based Drug–Drug Interaction in Healthy Volunteers” (Journal of Personalized Medicine, 2021):
“Also recorded” adds a separate entry of the source. Where two headings read alike, the source gives them in different places. Marks after values point to notes of the source that are not given here.

How the values were obtained:
CYP3A [1] = experiment: Oral MDZ (1.5 mg p.o.) plasma pharmacokinetics (MDZ and 1′-OH-MDZ) alone and after repeated inhibitor administration; details: for 1’-OH-MDZ AUC0– (zero to infinity), MDZ alone / 1’-OH-MDZ AUClast, MDZ alone / 1’-OH-MDZ Cmax, MDZ alone / 1’-OH-MDZ T1/2, MDZ alone / 1’-OH-MDZ Tmax, MDZ alone: MDZ 1.5 mg p.o., geometric mean (90% CI)
Description: (§1) ITZ tablets (200 mg) were split equally in two, and 100 mg were given to subjects.
(§2) MDZ acted as a nested control in the evaluation of the endogenous urinary markers, and it was administered both orally (1.5 mg) and intravenously (i.v.; 1.0 mg). Participants were all treated the same way for the baseline and randomly split into 3 arms of 8–10 individuals each to evaluate the effect of the inhibitors. […] MDZ pharmacokinetic (PK) profiling and biomarker sampling was also conducted after the washout period and at the end of the study to determine whether enzyme activity returned to baseline levels. The subjects were their control. Treatment, washout and end of study values were compared with values at baseline.
(§3) Plasma concentrations of MDZ and its metabolite 1′-OH-MDZ were analysed using a validated LC-MS/MS method. Plasma samples were extracted using protein precipitation, where 300 µL of acetonitrile (ACN) containing 500 ng/mL diazepam as an internal standard (IS) was added to 100 µL of plasma. The mixture was then vortexed for 10 min, followed by centrifugation at 10,000× g for 5 min at a temperature of 4 °C. The supernatant was collected, and 5 µL were injected into the LC-MS/MS for analysis.
(§4) The mobile phase consisted of 10 mM ammonium formate in 5% methanol (MeOH) (A) and ACN (B). […] The column temperature was maintained at 40 °C. MDZ and 1′-OH-MDZ were detected on a Sciex 3200 mass spectrometer with a turbo ion spray interphase operated in positive ion mode at 5500 V, a temperature of 5000 °C; GS1 and GS2 at 50 and 60 psi, respectively; and a curtain gas flow of 25 psi. […] The quantification of the MDZ and 1′-OH-MDZ was performed using the Analyst software (version 1.2; Applied Biosystems).
(§5) Standard non-compartmental pharmacokinetic (PK) analysis was performed with the WinNolin program, version 4.1 (Pharsight Corp, Mountain View, CA, USA), using the linear up logarithmic down trapezoidal method. The plasma parameters that were assessed and used for the comparison with the urinary biomarker were MDZ clearance (MDZ CL) and the area under the plasma concentration-time curve (AUC) from zero to infinity (AUC0–inf) of MDZ. More PK parameters were evaluated for MDZ and 1′-OH-MDZ.
(§6) The difference between log-transformed treatment/baseline was calculated pairwise for each subject, as well as for their 90% confidence intervals (CIs). These differences and CIs were anti-log-transformed back for reporting purposes. The same analysis was performed for MDZ clearance and AUC0-inf before and after treatment for comparison.
(§7) The pharmacokinetic (PK) parameters of MDZ were performed by standard noncompartmental
(§8) methods using the WinNolin program, version 4.1 (Pharsight Corp, Mountain View, CA, USA).
(§9) were plotted as graphs of midazolam or 1-OH-midazolam concentration vs. time.

CYP3A [2] = experiment: Intravenous MDZ (1.0 mg i.v.) plasma pharmacokinetics (MDZ and 1′-OH-MDZ) alone and after repeated inhibitor administration; details: MDZ 1 mg i.v., geometric mean (90% CI)
Description: as §1, §2, §3, §4, §5, §6, §7, §8, §9

CYP3A [3] = test system: CYP3A
Description: as §1, §2
Sample preparations for the analysis of 1β-OH-DCA and ToDCA in human urine were performed using a previously described method but without acid solvolysis [15, 20]. In brief, an aliquot of 50 µL of a 0.1 M Tris HCL buffer (pH 5) containing a mixture of hydrolysis enzymes (100 U/mL choloylglycine hydrolase, 200 µL/mL β-glucuronidase/arylsulfatase, and 100 U/mL sulfatase) was added to 50 µL of urine, followed by adding 50 µL of an aqueous solution containing 1 µM of (D4)-DCA and (D4)-1β-OH-DCA as IS. The mixture was incubated overnight at 37 °C at a shaking speed of 500 rpm for enzymatic hydrolysis of glucuronides, sulfates, and amino acid conjugates. The reaction mixture was then quenched with a 300 µL ACN-MeOH (1:1, v/v) solution followed by centrifugation at 4000× g, 4 °C for 20 min. The supernatant was separated and diluted with an equal volume of water for ultra-high-performance liquid chromatography-high resolution mass spectrometry (UPLC-HRMS) analysis. […]
References containing 10 µM G-DCA, T-DCA, G-1β-OH-DCA, T-1β-OH-DCA, CDCA-24-G, and DCA-3-S were also prepared in stripped urine and subjected to enzymatic hydrolysis to monitor the efficiency of enzymatic deconjugation. […] Therefore, the concentrations of DCA-3-S were also determined in urine and combined with free DCA to represent the total concentration of DCA, i.e., ToDCA. […]

CYP3A [4] = details: human, in vivo
Description: as §1, §2, §3, §4, §5, §6, §7, §8, §9

CYP3A [5] = details: human, in vivo, iv
Description: as §1, §2, §3, §4, §5, §6, §7, §8, §9

CYP3A [6] = details: ITZ 200 mg od for 6 days; cited from earlier work
[7] = repeated administration (APZ 1 mg od)

For `OCc1ncc2n1-c1ccc(Cl)cc1C(c1ccccc1F)=NC2` [1’-OH-MDZ, 1′-hydroxymidazolam], the “1’-OH-MDZ AUC0– (zero to infinity), MDZ alone” value (“1’-OH-MDZ AUC0–” for short) (CYP3A [1]; APZ arm (Table S1)) was 10.56 (6.77–16.48) ng·h/mL, the “1’-OH-MDZ AUClast, MDZ alone” value (CYP3A [1]; APZ arm (Table S1)) was 8.23 (6.15–11.02) ng·h/mL and the “1’-OH-MDZ Cmax, MDZ alone” value (CYP3A [1]; APZ arm (Table S1)) was 2.60 (2.13–3.18) ng/mL. The “1’-OH-MDZ T1/2, MDZ alone” value (CYP3A [1]; APZ arm (Table S1)) was 2.54 (1.26–5.09) h, the “1’-OH-MDZ Tmax, MDZ alone” value (CYP3A [1]; APZ arm (Table S1)) was 0.77 (0.65–0.91) h and the “1’-OH-MDZ AUC0–” value (CYP3A [1]; FKZ arm (Table S2)) was 6.73 (3.77 – 12.01) ng·h/ml. The “1’-OH-MDZ AUClast, MDZ alone” value (CYP3A [1]; FKZ arm (Table S2)) was 6.56 (3.6 – 11.94) ng·h/ml, the “1’-OH-MDZ Cmax, MDZ alone” value (CYP3A [1]; FKZ arm (Table S2)) was 2.81 (1.61 – 4.92) ng/ml and the “1’-OH-MDZ T1/2, MDZ alone” value (CYP3A [1]; FKZ arm (Table S2)) was 1.99 (1.32 – 3.0) h. For the same compound, the “1’-OH-MDZ Tmax, MDZ alone” value (CYP3A [1]; FKZ arm (Table S2)) was 0.83 (0.56 – 1.21) h, the “1’-OH-MDZ AUC0–” value (CYP3A [1]; ITZ arm (Table S3)) was 4.57 (3.04 – 6.88) ng·h/ml and the “1’-OH-MDZ AUClast, MDZ alone” value (CYP3A [1]; ITZ arm (Table S3)) was 4.22 (2.8 -6.36) ng·h/ml. For the same compound, the “1’-OH-MDZ Cmax, MDZ alone” value (CYP3A [1]; ITZ arm (Table S3)) was 2.29 (1.64 – 3.19) ng/ml, the “1’-OH-MDZ T1/2, MDZ alone” value (CYP3A [1]; ITZ arm (Table S3)) was 1.34 (1.05 -1.7) h and the “1’-OH-MDZ Tmax, MDZ alone” value (CYP3A [1]; ITZ arm (Table S3)) was 0.71 (0.63 – 0.80) h. The “1’-OH-MDZ AUC0–” value (CYP3A [2]; APZ arm (Table S1)) was 4.49 (2.12–9.50) ng·h/mL, the “1’-OH-MDZ AUClast, MDZ alone” value (CYP3A [2]; APZ arm (Table S1)) was 2.54 (1.49–4.35) ng·h/ml and the “1’-OH-MDZ Cmax, MDZ alone” value (CYP3A [2]; APZ arm (Table S1)) was 1.24 (1.02–1.50) ng/mL. The “1’-OH-MDZ AUC0–” value (CYP3A [2]; FKZ arm (Table S2)) was 3.31 (1.92 – 5.72) ng·h/ml, the “1’-OH-MDZ AUClast, MDZ alone” value (CYP3A [2]; FKZ arm (Table S2)) was 2.56 (1.65 - 3.96) ng·h/ml and the “1’-OH-MDZ Cmax, MDZ alone” value (CYP3A [2]; FKZ arm (Table S2)) was 1.09 (0.76 – 1.56) ng/ml. For the same compound, the “1’-OH-MDZ T1/2, MDZ alone” value (CYP3A [2]; FKZ arm (Table S2)) was 2.30 (1.44 -3.65) h, the “1’-OH-MDZ Tmax, MDZ alone” value (CYP3A [2]; FKZ arm (Table S2)) was 0.79 (0.69 – 0.90) h and the “1’-OH-MDZ AUC0–” value (CYP3A [2]; ITZ arm (Table S3)) was 2.26 (1.5 – 3.41) ng·h/ml. The “1’-OH-MDZ AUClast, MDZ alone” value (CYP3A [2]; ITZ arm (Table S3)) was 2.00 (1.41 – 3.01) ng·h/ml, the “1’-OH-MDZ Cmax, MDZ alone” value (CYP3A [2]; ITZ arm (Table S3)) was 1.09 (0.87 – 1.35) ng/ml and the “1’-OH-MDZ T1/2, MDZ alone” value (CYP3A [2]; ITZ arm (Table S3)) was 1.25 (0.8 – 1.95) h. The “1’-OH-MDZ Tmax, MDZ alone” value (CYP3A [2]; ITZ arm (Table S3)) was 0.79 (0.69 -0.90) h.
In the case of `Cc1nnc2n1-c1ccc(Cl)cc1C(c1ccccc1)=NC2` [APZ, alprazolam], the “effect on 1β-OH-DCA/ToDCA UMR (in words)” value (CYP3A [3]; [7]) is reported as “No inhibition; also recorded: no significant effect” and the “effect on MDZ PK parameters (in words)” value (CYP3A [1]; [7]) is reported as “no significant effect”.
For `OC(Cn1cncn1)(Cn1cncn1)c1ccc(F)cc1F` [FKZ, fluconazole], the “1’-OH-MDZ T1/2, MDZ + inhibitor” value (CYP3A [4]; po) was 1.71 (1 – 2.89) h, the “1’-OH-MDZ Tmax, MDZ + inhibitor” value (CYP3A [4]; po) was 0.83 (0.68 – 1) h and the “1’-OH-MDZ T1/2, MDZ + inhibitor” value (CYP3A [5]) was 2.25 (1.56 – 3.23) h. The “1’-OH-MDZ Tmax, MDZ + inhibitor” value (CYP3A [5]) was 0.70 (0.59 – 0.83) h.
For `CCC(C)n1ncn(-c2ccc(N3CCN(c4ccc(OCC5COC(Cn6cncn6)(c6ccc(Cl)cc6Cl)O5)cc4)CC3)cc2)c1=O` (stereo not shown) [ITZ, itraconazole], the “time after completion of treatment at which 1β-OH-DCA/ToDCA ratio was fully restored to baseline” value (CYP3A [3]; after ITZ 100 mg od for 6 days) was “nine”, the “Oral MDZ CL, Treatment/Baseline (90%CI)” value (CYP3A [4]) was 0.30 ** (0.18–0.47) and the “decrease of oral MDZ CL from baseline” value (CYP3A [4]) was 70%. The “i.v. MDZ CL, Treatment/Baseline (90%CI)” value (CYP3A [5]) was 0.44 * (0.26–0.73), the “fold increase in oral MDZ AUC” value (CYP3A [6]) was 6.6 fold and the “reduced oral MDZ clearance” value (CYP3A [6]) was 85%.
